These results are taken from patent publication US20090005444A1, “USE OF PROPOFOL PRODRUGS FOR TREATING ALCOHOL WITHDRAWAL, CENTRAL PAIN, ANXIETY OR PRURITUS” (XenoPort, Inc., priority 2007, published 2009).

The subject of one data set is male rats. Briefly: Multiple dose study in rats, oral once a day for five days. As to conditions: oral gavage once a day for five days, 49 to 97 mg-eq/kg propofol. The format is in vivo. The protocol:
Multiple dose studies in rats were performed by orally administering compound (2) formulated in water to groups of male rats at doses of 49 mg-eq/kg to 97 mg-eq/kg propofol for a period of five days, by oral gavages administered once a day.

The test system of another data set is male beagle dogs. Briefly: Acute toxicity study, single oral dose in dogs. The data set is classed as in vivo. The protocol:
Acute toxicity studies were also performed by orally administering a single dose of compound (2) formulated in water to groups of male beagle dogs at doses from about 25 mg-eq/kg to about 150 mg-eq/kg propofol.

In another data set the test system is rats. Briefly: Acute toxicity study, single oral dose in rats. The data set is classed as in vivo. As for the experimental part: Acute toxicity studies in rats were undertaken to assess the tolerance of a single oral dose of compound (2) formulated in water. […] Complete recovery from hypoactivity, sedation, and anesthesia occurred in all rats within about 8 hours after dosing. Doses above about 1552 mg-eq/kg (about 800 mg-eq/kg of propofol) were not tested.

The subject of the next data set is anxiety. To be noted: animal studies; cited from earlier work.
In another data set the test system is central pain. To be noted: subanesthetic dose 0.2 mg/kg IV; cited from earlier work.
The next data set has as its system delirium tremens. To be noted: sedative and subsedative doses of propofol; cited from earlier work.
The next data set has as its system pruritus. To be noted: subhypnotic doses; cholestasis and spinal morphine administration; cited from earlier work.
The conditions of data set [1]: oral dosing in rats; cited from earlier work.
The mark [2] stands for this setting: rats, single oral dose about 49 to about 388 mg-eq/kg propofol.
Where [3] appears, read: rats, single oral dose about 582 to about 970 mg-eq/kg propofol.
Where [4] appears, read: rats, single oral dose about 1164 to about 1552 mg-eq/kg propofol.

`CC(C)c1cccc(C(C)C)c1OC(=O)OC[C@H](N)C(=O)O` [compound (2), (S)-2-amino-3-(2,6-diisopropyl-phenoxycarbonyloxy)-propanoic acid]: in the data set with male rats, the adverse effects result was “No adverse effects were observed”, the sedation or anesthesia result is “No sedation or anesthesia was observed” and the “tolerance of multiple oral doses” value is listed as “well tolerated”. In the data set with male beagle dogs (formulated in water, about 25 to about 150 mg-eq/kg propofol), the “tolerance of a single oral dose” value was “well tolerated”. For the same molecule, in the data set on male beagle dogs (single oral dose about 25 to about 150 mg-eq/kg propofol), the sedation or anesthesia entry is recorded as “No sedation or anesthesia was observed”. In addition, the “time to complete recovery from hypoactivity, sedation, and anesthesia” value in the data set on rats (all rats, after single oral dose) is at most 8 h. Moreover, in the data set with rats (rats, formulated in water, about 49 to about 1552 mg-eq/kg propofol), the “tolerance of a single oral dose” value is given as “well tolerated”. Moreover, in the data set on rats (setting [2]), the “onset of transient hypoactivity after dose” value is at most 30 min and the “transient hypoactivity maintained, time post dose” value is on record as “up to 4 hours”. Further, in the data set on rats (setting [3]), the “onset of sedation after dosing” value was at most 1.5 h and the “sedation continued, time post dose” value is on record as “up to 4 hours”. Also, in the data set with rats (setting [4]), the “anesthesia continued, time post dose” value is on record as “up to 2 hours” and the “onset of anesthesia after dosing” value was at most 1 h.
With `CC(C)c1cccc(C(C)C)c1O` [propofol, 2,6-diisopropylphenol], the anxiolytic effect entry in the data set with anxiety was “exerts an anxiolytic effect independent of any sedative effect”. Besides, the “effect on SCIP and CPSP central pain” value with central pain is “effective in reducing both SCIP and CPSP central pain”. In addition, the “effect on symptoms of delirium tremens” value in the data set with delirium tremens is given as “effective in reducing the symptoms of delirium tremens”. For the same molecule, the effect on pruritus result in the data set on pruritus was “effective in controlling pruritus associated with cholestasis and spinal morphine administration”. Further, in data set [1], the “administered drug undergoing first pass metabolism” value was “approximately 90%”.
